Among the data in ChEMBL document CHEMBL5532655, “Discovery of (R)-4-(8-methoxy-2-methyl-1-(1-phenylethy)-1H-imidazo[4,5-c]quinnolin-7-yl)-3,5-dimethylisoxazole as a potent and selective BET inhibitor for treatment of acute myeloid leukemia (AML) guided by FEP calculation” (Eur J Med Chem, 2024) are Activity, ΔTm and IC50 values, retold here.

As usually defined, the ΔTm is the shift of the melting midpoint relative to a reference. One may read the IC50 as the concentration that gives 50% inhibition. The low end stands for higher potency, the high end for lower potency.

Each structure is given as a SMILES string.

The target of experiment [1] is Histone acetyltransferase p300 (Homo sapiens) (UniProt Q09472). As to the kind of experiment: Binding affinity to EP300 (unknown origin) using biotinylated histone peptide H4 as substrate at 1 uM incubated for 2 hrs by AlphaScreen assay relative to control.
The next experiment is filed under the species Homo sapiens. Description: Binding affinity to PHIP2 (unknown origin) using biotinylated histone peptide H4 as substrate at 1 uM incubated for 2 hrs by AlphaScreen assay relative to control. On the technique in general: In Alpha technology, singlet oxygen from a donor bead excites a nearby acceptor bead.
Experiment [2] has as its target T1, Bromodomain-containing protein 9 (Homo sapiens) (UniProt Q9H8M2).
T1 sequence (whole entry): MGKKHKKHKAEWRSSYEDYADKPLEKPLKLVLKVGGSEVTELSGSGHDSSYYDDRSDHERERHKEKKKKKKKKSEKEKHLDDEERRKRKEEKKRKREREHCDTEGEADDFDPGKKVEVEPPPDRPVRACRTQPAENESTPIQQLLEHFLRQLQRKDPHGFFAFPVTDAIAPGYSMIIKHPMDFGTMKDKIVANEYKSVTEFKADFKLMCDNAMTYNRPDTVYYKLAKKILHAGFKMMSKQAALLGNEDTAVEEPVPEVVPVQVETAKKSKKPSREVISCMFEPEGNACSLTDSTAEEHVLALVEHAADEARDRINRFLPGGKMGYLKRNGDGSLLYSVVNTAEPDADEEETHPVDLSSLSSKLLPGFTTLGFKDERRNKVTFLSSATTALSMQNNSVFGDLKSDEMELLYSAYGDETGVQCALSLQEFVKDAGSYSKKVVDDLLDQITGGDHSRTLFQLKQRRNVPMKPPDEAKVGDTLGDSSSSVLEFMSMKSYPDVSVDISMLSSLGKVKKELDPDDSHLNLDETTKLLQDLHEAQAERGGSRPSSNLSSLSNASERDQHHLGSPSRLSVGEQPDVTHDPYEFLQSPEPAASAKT
Description: Binding affinity to BRD9 (unknown origin) using biotinylated histone peptide H4 as substrate at 1 uM incubated for 2 hrs by AlphaScreen assay relative to control.

The target in experiment [3] is SWI/SNF-related matrix-associated actin-dependent regulator of chromatin subfamily A member 2 (Homo sapiens) (UniProt P51531). As to the kind of experiment: Binding affinity to SMARCA2 (unknown origin) using biotinylated histone peptide H4 as substrate at 1 uM incubated for 2 hrs by AlphaScreen assay relative to control.
Experiment [4] concerns the target Chromatin remodeling regulator CECR2 (Homo sapiens) (UniProt Q9BXF3). Particulars: time 30.0 min.
The target in experiment [5] is Histone acetyltransferase KAT2A (Homo sapiens) (UniProt Q92830). Particulars: time 30.0 min.
Experiment [6] concerns the target T2, Bromodomain-containing protein 7 (Homo sapiens) (UniProt Q9NPI1).
T2 sequence (whole entry): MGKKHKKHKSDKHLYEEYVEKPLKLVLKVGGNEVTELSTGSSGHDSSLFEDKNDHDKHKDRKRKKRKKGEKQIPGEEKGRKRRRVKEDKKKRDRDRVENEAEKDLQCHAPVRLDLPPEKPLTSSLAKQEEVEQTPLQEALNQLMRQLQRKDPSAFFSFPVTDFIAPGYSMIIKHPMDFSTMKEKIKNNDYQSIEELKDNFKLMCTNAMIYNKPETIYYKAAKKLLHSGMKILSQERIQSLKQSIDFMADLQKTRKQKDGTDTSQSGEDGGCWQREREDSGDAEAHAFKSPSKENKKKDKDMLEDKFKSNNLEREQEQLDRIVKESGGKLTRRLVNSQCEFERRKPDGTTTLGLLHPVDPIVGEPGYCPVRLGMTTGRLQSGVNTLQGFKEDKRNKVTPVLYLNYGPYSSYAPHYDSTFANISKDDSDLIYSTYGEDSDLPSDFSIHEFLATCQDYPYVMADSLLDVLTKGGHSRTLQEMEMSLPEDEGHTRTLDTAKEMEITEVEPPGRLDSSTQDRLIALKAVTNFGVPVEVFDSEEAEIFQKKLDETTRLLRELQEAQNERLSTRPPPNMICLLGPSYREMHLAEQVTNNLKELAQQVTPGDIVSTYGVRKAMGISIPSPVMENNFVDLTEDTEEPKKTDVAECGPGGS
To be noted: time 30.0 min.

Another experiment concerns the target T3, Peregrin (Homo sapiens) (UniProt P55201).
T3 sequence (whole entry): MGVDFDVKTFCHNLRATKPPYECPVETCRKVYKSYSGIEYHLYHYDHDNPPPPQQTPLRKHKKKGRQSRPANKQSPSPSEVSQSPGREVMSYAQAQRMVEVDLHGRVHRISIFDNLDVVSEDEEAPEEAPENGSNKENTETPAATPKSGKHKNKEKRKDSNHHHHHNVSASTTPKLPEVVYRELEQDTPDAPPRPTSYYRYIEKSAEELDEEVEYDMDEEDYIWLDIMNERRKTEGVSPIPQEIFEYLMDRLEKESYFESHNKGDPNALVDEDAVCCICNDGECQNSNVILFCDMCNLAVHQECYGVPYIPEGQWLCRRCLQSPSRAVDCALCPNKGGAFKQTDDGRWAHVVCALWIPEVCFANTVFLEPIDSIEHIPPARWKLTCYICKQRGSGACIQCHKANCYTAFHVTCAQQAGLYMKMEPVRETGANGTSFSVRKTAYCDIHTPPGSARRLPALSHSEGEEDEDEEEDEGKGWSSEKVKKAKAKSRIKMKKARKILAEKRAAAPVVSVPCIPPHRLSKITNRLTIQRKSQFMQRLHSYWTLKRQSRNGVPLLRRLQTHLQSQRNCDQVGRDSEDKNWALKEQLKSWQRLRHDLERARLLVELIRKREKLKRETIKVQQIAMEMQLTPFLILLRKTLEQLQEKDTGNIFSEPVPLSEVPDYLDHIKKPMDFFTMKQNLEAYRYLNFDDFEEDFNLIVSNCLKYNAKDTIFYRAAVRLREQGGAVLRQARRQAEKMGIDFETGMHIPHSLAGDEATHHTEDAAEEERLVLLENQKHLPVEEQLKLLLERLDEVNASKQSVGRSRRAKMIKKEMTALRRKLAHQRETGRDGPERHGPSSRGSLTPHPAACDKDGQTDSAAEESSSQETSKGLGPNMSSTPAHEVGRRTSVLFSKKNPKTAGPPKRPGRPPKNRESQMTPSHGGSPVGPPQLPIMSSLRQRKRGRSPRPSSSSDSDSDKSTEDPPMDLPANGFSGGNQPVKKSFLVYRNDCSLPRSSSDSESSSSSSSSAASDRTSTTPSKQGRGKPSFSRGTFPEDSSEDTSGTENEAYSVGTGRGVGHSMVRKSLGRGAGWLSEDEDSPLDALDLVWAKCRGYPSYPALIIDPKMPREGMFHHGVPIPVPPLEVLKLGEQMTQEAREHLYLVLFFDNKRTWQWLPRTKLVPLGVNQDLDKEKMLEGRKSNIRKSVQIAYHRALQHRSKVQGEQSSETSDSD
To be noted: time 30.0 min.

Experiment [7] deals with Transcription initiation factor TFIID subunit 1 (Homo sapiens) (UniProt P21675). To be noted: time 30.0 min.
For a further experiment, the system named is MM1.S. As to the kind of experiment: cells. Particulars: Homo sapiens, 48 h.

SWI/SNF-related matrix-associated actin-dependent regulator of chromatin subfamily A member 2 (Homo sapiens), sequence (P51531 whole entry): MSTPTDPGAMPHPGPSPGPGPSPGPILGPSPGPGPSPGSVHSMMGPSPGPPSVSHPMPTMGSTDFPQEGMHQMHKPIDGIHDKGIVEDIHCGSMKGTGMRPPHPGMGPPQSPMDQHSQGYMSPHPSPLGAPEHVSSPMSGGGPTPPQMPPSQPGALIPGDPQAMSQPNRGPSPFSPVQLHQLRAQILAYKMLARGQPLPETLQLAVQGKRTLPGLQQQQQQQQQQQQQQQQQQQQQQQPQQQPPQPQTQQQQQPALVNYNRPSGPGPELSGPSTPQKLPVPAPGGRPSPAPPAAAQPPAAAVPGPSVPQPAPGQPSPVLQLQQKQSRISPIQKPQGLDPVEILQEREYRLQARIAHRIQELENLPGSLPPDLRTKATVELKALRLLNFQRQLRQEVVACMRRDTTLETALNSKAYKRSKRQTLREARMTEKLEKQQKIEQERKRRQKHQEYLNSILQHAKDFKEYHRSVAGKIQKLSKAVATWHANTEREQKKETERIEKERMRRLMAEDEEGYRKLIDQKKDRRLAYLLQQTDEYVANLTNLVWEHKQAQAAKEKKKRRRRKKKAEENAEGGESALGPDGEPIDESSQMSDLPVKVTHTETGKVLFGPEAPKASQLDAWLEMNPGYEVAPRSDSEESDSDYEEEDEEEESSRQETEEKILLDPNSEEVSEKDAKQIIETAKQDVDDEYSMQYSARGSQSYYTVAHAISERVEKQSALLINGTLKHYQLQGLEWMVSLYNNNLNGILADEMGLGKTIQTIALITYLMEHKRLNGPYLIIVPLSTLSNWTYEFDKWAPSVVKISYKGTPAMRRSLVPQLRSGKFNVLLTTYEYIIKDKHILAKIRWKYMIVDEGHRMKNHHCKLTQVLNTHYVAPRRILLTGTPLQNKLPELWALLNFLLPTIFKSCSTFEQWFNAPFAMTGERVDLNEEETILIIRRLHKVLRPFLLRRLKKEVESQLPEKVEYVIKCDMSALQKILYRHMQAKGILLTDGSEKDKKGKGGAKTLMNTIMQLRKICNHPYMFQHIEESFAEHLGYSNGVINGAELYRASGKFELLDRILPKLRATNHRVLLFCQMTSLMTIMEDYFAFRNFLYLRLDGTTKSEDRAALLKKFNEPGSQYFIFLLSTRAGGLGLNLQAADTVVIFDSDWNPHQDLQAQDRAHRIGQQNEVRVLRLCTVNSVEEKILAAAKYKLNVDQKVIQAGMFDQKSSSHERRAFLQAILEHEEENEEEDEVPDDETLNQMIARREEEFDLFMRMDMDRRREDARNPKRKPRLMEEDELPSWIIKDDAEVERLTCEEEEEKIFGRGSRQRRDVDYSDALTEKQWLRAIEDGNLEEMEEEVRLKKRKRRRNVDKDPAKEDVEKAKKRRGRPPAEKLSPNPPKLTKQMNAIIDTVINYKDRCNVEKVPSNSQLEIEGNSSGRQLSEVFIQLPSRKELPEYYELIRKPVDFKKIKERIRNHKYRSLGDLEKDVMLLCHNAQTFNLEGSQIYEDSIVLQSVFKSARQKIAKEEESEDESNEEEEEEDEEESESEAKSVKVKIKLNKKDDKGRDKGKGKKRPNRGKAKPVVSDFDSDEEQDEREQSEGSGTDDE
Chromatin remodeling regulator CECR2 (Homo sapiens), sequence (Q9BXF3 whole entry, looked up): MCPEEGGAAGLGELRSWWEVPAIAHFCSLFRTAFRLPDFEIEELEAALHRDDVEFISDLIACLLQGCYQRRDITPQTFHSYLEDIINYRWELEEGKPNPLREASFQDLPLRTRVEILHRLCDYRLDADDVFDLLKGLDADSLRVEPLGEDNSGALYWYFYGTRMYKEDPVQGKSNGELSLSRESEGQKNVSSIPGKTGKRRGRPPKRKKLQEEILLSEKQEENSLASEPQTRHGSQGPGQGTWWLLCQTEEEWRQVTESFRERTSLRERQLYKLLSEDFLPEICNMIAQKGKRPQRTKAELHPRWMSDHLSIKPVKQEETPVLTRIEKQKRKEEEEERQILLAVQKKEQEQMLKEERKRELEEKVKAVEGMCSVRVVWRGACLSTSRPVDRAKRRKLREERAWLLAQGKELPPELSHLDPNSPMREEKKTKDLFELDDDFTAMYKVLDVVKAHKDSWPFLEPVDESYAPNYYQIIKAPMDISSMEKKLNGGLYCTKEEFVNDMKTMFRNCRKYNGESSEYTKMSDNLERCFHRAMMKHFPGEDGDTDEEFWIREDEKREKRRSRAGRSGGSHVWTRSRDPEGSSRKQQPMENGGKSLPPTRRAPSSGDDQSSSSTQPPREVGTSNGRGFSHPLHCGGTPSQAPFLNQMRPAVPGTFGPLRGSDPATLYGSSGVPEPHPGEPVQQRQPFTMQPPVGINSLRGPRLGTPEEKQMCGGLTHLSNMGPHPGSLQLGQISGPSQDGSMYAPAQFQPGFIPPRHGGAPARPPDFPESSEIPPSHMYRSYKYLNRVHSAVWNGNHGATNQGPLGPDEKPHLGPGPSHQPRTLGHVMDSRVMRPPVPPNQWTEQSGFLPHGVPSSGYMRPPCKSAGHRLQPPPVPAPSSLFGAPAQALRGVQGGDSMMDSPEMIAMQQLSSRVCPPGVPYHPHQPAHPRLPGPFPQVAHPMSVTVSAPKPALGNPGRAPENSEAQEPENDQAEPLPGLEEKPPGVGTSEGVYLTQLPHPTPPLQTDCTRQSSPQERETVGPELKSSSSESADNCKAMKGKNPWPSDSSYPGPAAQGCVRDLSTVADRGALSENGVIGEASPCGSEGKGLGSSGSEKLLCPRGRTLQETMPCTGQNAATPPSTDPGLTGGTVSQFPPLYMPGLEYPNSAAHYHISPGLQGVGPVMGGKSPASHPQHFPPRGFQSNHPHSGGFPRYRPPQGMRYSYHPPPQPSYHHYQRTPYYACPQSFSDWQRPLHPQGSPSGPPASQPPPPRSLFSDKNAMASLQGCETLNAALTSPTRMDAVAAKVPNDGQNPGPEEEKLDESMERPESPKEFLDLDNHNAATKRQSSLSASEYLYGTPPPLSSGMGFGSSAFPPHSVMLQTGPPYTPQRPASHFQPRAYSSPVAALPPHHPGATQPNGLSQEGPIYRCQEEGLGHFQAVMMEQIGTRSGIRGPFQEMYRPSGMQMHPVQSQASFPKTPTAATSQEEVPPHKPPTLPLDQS
Transcription initiation factor TFIID subunit 1 (Homo sapiens), sequence (P21675 whole entry): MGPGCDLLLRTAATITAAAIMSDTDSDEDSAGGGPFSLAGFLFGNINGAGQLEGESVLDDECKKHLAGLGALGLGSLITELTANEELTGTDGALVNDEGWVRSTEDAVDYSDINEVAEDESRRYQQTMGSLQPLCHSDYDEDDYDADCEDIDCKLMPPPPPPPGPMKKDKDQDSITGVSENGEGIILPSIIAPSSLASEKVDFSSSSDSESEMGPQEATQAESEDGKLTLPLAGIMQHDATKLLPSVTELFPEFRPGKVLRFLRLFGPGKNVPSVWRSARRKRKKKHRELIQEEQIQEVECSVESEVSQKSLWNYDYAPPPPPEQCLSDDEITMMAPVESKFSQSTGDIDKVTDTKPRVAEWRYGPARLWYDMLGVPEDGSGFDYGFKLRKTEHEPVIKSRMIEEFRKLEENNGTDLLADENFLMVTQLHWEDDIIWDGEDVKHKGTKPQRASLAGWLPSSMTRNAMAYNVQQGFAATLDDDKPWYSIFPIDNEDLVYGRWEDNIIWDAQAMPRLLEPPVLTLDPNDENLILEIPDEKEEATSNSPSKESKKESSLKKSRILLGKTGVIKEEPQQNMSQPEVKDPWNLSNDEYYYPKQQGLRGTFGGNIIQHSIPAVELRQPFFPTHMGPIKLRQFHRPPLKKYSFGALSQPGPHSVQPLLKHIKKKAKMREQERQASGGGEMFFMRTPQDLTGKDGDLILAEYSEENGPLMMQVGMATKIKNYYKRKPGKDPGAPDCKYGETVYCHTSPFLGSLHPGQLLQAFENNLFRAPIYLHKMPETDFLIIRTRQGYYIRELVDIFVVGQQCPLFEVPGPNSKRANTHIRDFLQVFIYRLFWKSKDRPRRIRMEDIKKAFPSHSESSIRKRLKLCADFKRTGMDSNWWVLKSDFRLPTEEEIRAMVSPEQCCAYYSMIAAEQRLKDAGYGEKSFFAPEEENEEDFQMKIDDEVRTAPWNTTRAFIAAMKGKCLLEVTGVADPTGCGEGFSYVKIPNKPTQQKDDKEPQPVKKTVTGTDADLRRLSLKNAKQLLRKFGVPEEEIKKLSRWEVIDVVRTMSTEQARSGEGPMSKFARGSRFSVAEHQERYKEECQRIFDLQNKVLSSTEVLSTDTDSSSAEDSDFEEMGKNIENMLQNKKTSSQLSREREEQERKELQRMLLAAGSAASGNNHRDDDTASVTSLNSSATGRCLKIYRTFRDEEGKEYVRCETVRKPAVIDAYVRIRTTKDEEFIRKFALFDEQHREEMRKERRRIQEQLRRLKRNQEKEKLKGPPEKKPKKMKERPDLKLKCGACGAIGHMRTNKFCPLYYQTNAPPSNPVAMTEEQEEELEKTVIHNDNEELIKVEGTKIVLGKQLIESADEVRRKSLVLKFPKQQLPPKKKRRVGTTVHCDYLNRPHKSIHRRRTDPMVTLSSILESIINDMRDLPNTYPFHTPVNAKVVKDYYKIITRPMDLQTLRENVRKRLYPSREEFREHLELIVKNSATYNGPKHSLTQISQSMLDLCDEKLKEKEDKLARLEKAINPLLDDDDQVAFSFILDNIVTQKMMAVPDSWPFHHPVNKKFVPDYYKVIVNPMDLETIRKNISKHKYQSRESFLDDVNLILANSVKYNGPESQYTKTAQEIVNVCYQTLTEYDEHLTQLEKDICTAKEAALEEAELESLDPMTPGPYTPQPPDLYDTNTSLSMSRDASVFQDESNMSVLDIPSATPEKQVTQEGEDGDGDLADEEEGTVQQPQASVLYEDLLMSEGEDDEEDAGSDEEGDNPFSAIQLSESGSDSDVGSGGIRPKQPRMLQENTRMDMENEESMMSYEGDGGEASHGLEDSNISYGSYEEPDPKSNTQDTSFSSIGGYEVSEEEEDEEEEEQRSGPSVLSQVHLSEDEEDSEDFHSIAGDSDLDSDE
Description for MM1.S: Antiproliferative activity against human MM1.S cells assessed as inhibition of cell growth incubated for 48 hrs by MTT assay
Description for Peregrin (Homo sapiens): Binding affinity to BRPF1 (unknown origin) assessed as change in melting temperature incubated for 30 mins by SYPRO orange staining based thermal shift assay

Turning to `COc1cc2c(cc1-c1c(C)noc1C)ncc1nc(C)n([C@H](C)c3ccccc3)c12`, the Activity in [1] was more than 80%; in the experiment filed under Homo sapiens it was less than 30%; in [2] it was less than 30%; in [3], less than 30%. Also, the ΔTm (in [4]; in experiment [5]; in experiment [6]; at Peregrin (Homo sapiens); in experiment [7]) was 0 °C each time. The same compound yielded an IC50 in the experiment with MM1.S of 530 nM.
Take `COc1cc2c(cc1-c1c(C)n[nH]c1C)ncc1nc(C)n([C@H](C)c3ccccc3)c12`: the Activity (in experiment [1]; in the experiment listed under Homo sapiens; in experiment [2]; in experiment [3]) was less than 30% throughout. The ΔTm (in experiment [4]; in [5]; in experiment [6]; at Peregrin (Homo sapiens); in experiment [7]) was 0 °C each time. The IC50 in the experiment with MM1.S is 480 nM.
